Experiment in all cases: kinase profiling panel
What all share (format): biochemical
Settings in all cases: read-out: % Activity Remaining

One experiment deals with T1, TAO1 (Homo sapiens, UniProt Q7L7X3).
T1 sequence (Q7L7X3 1-1001): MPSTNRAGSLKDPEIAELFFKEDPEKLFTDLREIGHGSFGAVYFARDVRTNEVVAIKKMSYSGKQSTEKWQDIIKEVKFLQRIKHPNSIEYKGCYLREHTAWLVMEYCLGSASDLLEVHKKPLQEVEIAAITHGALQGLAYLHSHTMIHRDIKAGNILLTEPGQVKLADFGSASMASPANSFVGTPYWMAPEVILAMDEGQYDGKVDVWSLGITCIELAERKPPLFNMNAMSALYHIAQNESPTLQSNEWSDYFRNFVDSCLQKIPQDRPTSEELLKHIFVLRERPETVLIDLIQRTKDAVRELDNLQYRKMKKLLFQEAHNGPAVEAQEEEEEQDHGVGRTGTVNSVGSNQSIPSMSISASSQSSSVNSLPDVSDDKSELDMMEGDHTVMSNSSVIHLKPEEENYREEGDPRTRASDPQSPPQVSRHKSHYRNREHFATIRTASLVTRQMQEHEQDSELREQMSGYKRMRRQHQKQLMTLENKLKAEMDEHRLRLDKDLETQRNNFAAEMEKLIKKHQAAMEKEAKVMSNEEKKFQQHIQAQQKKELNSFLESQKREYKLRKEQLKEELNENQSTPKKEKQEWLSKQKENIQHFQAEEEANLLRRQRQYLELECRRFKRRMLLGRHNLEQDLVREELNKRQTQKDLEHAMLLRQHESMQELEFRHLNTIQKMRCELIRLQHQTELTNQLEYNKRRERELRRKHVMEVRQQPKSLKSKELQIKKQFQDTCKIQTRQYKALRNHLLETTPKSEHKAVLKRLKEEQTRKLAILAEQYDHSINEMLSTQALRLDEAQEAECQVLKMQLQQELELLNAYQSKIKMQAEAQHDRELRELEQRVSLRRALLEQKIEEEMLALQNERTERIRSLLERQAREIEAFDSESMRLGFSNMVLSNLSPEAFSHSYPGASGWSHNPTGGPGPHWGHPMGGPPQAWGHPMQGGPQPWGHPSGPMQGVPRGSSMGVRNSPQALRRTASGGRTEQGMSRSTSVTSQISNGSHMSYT
The source says:
(§1) Protein kinase profiling against a Dundee panel of 140 protein kinases was undertaken at the International Centre for Protein Kinase Profiling. The result for each kinase was presented as a mean kinase activity of the reaction taken in triplicate relative to a control sample treated with DMSO. Assay conditions and abbreviations are available at http://www.kinase-screen.mrc.ac.uk.

A further experiment addresses EPH-A4 (Homo sapiens, UniProt P54764).
Description: as §1

A further experiment has as its target WNK1 (Homo sapiens, UniProt Q9H4A3).
Description: as §1

Another experiment addresses ABL (Homo sapiens, UniProt P00519).
Description: as §1

The target of another experiment is MNK2 (Homo sapiens, UniProt Q9HBH9).
Description: as §1

For another experiment, the target named is T2, CHK1 (Homo sapiens, UniProt O14757).
T2 sequence (O14757 1-476): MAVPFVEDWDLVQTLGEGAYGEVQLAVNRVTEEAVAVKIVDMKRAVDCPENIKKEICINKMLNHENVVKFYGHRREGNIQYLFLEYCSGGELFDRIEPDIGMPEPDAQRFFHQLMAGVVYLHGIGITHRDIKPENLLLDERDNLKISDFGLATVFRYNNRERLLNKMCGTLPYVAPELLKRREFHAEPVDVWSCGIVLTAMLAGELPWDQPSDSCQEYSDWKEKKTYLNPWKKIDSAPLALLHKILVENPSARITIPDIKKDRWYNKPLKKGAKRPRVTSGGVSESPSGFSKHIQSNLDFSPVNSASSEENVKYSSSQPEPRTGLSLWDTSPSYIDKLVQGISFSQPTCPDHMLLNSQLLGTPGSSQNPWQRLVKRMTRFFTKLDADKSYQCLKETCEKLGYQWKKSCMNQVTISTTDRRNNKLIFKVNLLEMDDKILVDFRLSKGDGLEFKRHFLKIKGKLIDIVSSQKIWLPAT
Description: as §1

Where two headings read alike, the source gives them in different places.

Chain of MNK2 (Q9HBH9 whole entry): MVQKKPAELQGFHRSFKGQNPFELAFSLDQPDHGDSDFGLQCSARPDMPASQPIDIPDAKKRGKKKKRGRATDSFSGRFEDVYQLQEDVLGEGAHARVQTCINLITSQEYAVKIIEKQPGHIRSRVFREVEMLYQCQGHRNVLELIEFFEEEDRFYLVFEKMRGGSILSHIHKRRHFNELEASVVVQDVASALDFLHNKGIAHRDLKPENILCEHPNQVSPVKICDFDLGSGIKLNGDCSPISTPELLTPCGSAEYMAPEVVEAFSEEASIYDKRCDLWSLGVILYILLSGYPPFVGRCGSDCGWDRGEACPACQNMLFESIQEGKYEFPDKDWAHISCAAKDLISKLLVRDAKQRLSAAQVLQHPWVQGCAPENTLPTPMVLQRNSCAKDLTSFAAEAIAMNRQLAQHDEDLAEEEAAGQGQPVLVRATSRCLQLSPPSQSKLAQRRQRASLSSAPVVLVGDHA
Chain of EPH-A4 (P54764 20-986): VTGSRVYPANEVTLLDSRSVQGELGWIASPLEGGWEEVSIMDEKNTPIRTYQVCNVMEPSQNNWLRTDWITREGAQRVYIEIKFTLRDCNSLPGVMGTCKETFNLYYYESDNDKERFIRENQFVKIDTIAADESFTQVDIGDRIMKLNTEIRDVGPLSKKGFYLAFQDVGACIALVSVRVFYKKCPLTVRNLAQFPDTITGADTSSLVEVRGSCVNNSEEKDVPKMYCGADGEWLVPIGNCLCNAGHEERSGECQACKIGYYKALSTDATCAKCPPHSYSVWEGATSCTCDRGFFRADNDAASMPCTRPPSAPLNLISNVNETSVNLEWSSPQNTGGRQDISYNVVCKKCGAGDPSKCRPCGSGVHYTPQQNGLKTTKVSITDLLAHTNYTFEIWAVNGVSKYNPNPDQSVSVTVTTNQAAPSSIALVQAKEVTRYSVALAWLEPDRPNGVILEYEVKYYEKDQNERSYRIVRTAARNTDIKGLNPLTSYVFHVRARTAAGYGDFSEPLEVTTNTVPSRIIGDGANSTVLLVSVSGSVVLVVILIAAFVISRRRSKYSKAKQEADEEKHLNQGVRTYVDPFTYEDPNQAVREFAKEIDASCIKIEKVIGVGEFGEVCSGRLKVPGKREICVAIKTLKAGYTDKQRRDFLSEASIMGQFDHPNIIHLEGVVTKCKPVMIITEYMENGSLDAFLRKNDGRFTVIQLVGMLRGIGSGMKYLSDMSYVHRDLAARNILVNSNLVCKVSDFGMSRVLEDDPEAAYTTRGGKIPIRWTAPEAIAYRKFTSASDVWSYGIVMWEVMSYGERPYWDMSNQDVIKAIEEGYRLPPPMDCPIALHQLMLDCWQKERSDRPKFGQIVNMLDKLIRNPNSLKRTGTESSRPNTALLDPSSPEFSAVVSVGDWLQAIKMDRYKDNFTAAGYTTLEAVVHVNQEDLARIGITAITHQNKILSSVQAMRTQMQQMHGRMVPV
Chain of WNK1 (Q9H4A3 whole entry): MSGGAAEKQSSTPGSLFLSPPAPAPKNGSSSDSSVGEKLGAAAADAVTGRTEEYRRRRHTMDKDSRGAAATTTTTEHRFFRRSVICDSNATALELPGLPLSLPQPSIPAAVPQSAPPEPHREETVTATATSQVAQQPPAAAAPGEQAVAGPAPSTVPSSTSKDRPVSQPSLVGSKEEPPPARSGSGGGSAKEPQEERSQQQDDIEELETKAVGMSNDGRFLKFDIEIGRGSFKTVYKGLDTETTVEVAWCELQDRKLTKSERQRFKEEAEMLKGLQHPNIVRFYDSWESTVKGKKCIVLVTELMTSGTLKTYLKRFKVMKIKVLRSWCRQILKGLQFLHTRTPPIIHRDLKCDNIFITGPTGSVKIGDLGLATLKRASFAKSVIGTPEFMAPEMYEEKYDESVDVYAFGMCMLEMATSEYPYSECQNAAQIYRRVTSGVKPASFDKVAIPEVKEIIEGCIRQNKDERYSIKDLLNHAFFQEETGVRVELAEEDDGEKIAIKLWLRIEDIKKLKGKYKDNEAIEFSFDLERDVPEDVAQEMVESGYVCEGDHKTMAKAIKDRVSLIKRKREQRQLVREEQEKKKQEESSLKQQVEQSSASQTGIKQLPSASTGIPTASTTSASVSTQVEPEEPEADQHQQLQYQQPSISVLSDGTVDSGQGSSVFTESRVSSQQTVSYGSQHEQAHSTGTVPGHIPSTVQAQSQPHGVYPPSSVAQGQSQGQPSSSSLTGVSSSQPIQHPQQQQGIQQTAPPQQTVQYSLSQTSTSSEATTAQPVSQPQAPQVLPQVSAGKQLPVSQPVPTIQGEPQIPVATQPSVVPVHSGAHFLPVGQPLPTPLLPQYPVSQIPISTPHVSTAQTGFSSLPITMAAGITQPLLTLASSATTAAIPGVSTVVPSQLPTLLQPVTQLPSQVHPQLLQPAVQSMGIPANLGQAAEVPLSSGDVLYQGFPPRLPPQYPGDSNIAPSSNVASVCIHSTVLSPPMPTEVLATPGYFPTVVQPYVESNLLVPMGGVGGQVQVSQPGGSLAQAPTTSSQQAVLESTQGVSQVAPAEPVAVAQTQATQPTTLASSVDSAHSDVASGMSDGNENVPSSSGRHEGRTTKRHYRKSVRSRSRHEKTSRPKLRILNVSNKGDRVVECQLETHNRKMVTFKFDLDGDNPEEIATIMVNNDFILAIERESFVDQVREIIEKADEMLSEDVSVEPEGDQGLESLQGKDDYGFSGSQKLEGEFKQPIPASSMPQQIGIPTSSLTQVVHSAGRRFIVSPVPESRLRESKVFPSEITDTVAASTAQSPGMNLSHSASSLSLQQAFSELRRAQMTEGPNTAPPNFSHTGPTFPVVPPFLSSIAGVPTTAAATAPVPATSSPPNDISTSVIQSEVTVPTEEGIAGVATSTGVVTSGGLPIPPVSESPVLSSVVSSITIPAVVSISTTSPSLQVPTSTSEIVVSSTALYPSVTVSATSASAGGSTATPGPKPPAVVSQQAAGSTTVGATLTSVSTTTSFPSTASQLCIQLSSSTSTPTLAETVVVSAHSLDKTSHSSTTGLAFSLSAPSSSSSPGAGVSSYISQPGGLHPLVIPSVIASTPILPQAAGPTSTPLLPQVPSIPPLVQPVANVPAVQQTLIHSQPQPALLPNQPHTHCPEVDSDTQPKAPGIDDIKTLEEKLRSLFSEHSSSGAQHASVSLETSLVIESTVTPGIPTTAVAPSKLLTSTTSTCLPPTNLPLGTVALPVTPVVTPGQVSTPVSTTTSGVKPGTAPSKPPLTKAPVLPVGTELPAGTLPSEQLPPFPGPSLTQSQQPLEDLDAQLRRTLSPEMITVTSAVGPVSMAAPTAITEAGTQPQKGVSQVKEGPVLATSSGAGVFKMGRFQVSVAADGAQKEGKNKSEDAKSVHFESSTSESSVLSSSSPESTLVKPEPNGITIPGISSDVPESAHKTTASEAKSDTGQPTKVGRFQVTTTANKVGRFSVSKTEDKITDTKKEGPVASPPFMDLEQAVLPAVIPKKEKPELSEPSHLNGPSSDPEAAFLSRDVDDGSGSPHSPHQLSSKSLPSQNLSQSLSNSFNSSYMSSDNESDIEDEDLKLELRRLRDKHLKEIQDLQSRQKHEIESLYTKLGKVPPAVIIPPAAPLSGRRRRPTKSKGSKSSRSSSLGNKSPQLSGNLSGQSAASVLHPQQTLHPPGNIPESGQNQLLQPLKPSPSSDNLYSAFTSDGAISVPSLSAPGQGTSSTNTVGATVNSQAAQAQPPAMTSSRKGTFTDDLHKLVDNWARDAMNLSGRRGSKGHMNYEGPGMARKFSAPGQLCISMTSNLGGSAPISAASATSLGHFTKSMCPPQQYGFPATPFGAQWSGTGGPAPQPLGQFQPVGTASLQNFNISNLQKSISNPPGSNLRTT
Chain of ABL (P00519 whole entry): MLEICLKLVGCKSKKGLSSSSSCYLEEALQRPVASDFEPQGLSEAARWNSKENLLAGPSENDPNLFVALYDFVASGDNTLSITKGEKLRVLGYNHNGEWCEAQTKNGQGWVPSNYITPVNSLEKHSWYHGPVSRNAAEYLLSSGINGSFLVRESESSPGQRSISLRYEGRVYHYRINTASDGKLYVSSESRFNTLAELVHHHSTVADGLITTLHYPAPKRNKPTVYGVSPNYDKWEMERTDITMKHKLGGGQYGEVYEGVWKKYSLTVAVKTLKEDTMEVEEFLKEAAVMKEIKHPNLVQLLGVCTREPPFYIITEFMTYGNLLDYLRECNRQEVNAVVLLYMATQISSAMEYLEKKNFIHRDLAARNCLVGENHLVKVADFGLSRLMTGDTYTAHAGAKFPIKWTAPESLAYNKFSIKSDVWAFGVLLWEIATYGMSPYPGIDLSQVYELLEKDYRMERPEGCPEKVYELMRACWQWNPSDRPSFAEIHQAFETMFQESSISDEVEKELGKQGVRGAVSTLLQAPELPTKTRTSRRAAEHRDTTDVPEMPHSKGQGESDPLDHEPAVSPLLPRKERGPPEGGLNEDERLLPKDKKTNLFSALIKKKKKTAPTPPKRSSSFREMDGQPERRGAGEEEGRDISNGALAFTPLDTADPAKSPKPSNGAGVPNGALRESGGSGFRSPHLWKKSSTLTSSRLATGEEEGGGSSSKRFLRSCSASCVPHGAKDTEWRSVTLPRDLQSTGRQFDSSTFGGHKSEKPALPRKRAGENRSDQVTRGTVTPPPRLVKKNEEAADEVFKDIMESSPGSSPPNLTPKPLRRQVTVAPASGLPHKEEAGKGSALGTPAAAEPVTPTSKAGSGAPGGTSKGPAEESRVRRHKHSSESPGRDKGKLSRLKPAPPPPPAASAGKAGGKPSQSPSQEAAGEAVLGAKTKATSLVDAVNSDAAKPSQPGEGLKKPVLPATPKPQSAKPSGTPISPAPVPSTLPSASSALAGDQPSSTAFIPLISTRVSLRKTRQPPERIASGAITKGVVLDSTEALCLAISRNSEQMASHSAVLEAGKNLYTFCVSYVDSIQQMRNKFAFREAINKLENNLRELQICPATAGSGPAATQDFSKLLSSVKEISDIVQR

As usually defined, the remaining activity is the signal under treatment as a percentage of the control signal. With `COc1ccc(Cl)c(S(=O)(=O)Nc2ccc(-c3nc(OC[C@H]4CNCCO4)c4c(C)n[nH]c4n3)cc2)c1` [290-R, reference compound], the remaining activity at 1 µM was determined as 110% on TAO1; 95% at EPH-A4; 110% at WNK1; 88% on ABL; 119% at MNK2; 95% at CHK1.
As for `Cc1ccc(F)c(S(=O)(=O)Nc2ccc(-c3nc(OC[C@H]4CNCCO4)c4cn[nH]c4n3)cc2)c1` [308-R, reference compound], the remaining activity at 1 µM was determined as 123% at TAO1; 53% on EPH-A4; 75% at WNK1; 96% on ABL; 78% at MNK2; 109% at CHK1.
For the molecule `Cc1ccc(F)c(S(=O)(=O)Nc2ccc(-c3nc(OC[C@H]4CN(CCCCCCOCCOCCOCC(=O)N[C@H](C(=O)N5C[C@H](O)C[C@H]5C(=O)NCc5ccc(-c6scnc6C)cc5)C(C)(C)C)CCO4)c4cn[nH]c4n3)cc2)c1` [SGK3-PROTAC1], the remaining activity at 1 µM on TAO1 (1 µM) worked out at 99%; on EPH-A4 (1 µM), 106%; on WNK1 (1 µM) it was 94%; on ABL (1 µM), 111%; on MNK2 (1 µM), 122%; at CHK1 (1 µM) it was 111%.
Take `Cc1ccc(F)c(S(=O)(=O)Nc2ccc(-c3nc(OC[C@H]4CN(CCCCCCOCCOCCOCC(=O)N[C@H](C(=O)N5C[C@@H](O)C[C@H]5C(=O)NCc5ccc(-c6scnc6C)cc5)C(C)(C)C)CCO4)c4cn[nH]c4n3)cc2)c1` [cisSGK3-PROTAC1]: the remaining activity at 1 µM at TAO1 (1 µM) is 105%; on EPH-A4 (1 µM), 89%; on WNK1 (1 µM), 97%; on ABL (1 µM), 112%; on MNK2 (1 µM) it was 122%; on CHK1 (1 µM), 126%.

For the origin of these results see PMC6757289, “Design and Characterization of SGK3-PROTAC1, an Isoform Specific SGK3 Kinase PROTAC Degrader” (ACS Chemical Biology, 2019).
